# Key:
# [1] = target: T1, PKR1R2 (Methanosarcina acetivorans, UniProt Q8THY1); experiment: fluorescence titration with TNP-ATP; format: binding; settings: fluorescent ATP analogue; kinase buffer pH 8, 5 mM MgCl2; 541 nm emission
# T1 construct: gene MA_4377; cytosolic truncation PAS-HK-R1-R2 without CHASE4 and HAMP (membrane) part
# T1 sequence (Q8THY1 351-1028 limits assumed): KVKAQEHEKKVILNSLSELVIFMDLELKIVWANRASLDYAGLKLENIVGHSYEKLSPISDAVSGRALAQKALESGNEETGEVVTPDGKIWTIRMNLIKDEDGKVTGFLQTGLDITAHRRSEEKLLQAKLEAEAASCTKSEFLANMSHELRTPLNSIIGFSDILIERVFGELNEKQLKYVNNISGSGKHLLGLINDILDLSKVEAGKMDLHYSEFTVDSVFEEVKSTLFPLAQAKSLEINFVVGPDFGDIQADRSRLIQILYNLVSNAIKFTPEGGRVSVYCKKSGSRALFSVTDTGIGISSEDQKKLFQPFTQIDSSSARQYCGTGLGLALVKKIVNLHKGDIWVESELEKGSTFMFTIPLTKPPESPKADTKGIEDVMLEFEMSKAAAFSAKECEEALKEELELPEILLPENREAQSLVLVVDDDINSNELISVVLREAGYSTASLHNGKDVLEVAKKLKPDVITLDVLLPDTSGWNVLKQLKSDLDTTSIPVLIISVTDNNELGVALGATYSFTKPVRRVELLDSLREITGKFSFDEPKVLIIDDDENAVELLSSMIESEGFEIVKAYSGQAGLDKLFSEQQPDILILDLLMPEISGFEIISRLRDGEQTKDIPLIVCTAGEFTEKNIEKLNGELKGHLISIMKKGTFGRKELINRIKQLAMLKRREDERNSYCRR
# [2] = target: T2, RdmS (MA0863) (Methanosarcina acetivorans, UniProt Q8TSD5); experiment: fluorescence titration with TNP-ATP; format: binding; settings: fluorescent ATP analogue; kinase buffer pH 8, 5 mM MgCl2; 541 nm emission
# T2 construct: gene MA_0863
# T2 sequence (Q8TSD5 1-749): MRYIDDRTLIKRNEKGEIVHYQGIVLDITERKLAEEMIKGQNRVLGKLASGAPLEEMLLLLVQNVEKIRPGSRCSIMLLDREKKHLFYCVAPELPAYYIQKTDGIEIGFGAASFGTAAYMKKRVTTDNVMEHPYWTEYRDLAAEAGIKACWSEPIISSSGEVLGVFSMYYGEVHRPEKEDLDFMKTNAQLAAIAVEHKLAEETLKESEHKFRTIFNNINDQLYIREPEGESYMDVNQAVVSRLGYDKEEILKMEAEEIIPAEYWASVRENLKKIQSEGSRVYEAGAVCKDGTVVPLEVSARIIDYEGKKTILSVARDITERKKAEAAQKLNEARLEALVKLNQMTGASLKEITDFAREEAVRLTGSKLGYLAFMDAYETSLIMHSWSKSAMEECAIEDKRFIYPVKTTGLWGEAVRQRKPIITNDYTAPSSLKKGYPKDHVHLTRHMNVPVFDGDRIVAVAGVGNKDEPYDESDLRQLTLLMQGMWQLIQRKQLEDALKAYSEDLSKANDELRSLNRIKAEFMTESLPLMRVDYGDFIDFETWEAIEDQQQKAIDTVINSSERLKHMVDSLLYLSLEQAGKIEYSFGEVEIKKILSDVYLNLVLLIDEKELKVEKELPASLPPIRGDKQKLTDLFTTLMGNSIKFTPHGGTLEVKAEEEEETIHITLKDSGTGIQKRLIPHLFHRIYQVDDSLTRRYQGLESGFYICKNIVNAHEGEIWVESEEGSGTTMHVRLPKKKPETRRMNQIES
# [3] = target: T3, MA4377 (full-length) (Methanosarcina acetivorans, UniProt Q8THY1); experiment: fluorescence titration with TNP-ATP; format: binding; settings: fluorescent ATP analogue; kinase buffer pH 8, 5 mM MgCl2; 541 nm emission
# T3 construct: gene MA_4377
# T3 sequence (Q8THY1 1-1028): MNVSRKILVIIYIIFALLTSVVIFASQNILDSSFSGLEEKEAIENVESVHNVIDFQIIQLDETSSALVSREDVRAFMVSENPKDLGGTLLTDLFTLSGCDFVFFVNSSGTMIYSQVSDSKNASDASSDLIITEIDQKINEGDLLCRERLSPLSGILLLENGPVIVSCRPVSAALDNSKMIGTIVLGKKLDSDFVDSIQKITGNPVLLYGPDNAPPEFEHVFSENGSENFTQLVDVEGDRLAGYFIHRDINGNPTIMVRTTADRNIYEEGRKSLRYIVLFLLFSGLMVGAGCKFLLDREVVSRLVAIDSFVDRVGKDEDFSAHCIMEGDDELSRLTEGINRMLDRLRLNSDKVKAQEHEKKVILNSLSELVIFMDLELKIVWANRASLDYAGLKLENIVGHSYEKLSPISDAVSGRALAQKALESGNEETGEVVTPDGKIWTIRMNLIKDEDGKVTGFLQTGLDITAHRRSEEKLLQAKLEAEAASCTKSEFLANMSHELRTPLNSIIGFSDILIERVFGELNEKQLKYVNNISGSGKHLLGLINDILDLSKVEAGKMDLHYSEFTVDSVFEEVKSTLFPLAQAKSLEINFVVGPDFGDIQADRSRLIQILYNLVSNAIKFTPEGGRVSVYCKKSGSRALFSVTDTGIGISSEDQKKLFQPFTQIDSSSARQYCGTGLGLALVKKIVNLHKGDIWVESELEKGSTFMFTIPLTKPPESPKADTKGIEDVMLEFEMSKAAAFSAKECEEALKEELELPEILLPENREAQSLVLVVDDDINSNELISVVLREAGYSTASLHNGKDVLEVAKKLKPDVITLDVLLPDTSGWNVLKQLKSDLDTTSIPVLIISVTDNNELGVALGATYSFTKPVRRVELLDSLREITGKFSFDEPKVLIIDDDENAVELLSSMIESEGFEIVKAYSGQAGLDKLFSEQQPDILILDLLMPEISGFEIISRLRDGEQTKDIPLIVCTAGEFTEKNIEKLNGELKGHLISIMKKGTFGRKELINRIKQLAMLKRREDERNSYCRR
# [4] = target: T4, MA2082 (Methanosarcina acetivorans, UniProt Q8TP40); experiment: fluorescence titration with TNP-ATP; format: binding; settings: fluorescent ATP analogue; kinase buffer pH 8, 5 mM MgCl2; 541 nm emission
# T4 construct: gene MA_2082
# T4 sequence (Q8TP40 1-698): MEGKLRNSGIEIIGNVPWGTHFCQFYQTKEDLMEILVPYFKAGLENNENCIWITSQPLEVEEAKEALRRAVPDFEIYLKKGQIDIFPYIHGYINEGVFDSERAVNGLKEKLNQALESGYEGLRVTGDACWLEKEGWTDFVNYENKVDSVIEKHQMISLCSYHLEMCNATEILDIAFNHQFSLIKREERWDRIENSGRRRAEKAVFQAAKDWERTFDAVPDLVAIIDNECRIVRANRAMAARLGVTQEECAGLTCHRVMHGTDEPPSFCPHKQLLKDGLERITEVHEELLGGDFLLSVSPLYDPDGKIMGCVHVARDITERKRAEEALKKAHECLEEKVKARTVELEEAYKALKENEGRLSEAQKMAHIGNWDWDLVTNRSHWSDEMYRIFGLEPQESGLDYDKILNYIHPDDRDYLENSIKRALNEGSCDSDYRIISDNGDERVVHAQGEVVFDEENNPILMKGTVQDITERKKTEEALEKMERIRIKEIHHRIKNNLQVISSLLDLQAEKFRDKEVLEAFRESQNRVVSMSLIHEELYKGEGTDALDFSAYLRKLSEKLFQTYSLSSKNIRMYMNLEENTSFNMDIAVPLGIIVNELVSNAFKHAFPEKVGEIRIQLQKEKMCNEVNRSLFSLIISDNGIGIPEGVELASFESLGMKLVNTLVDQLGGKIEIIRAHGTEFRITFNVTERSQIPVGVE
# [5] = target: T5, MA2013 (Methanosarcina acetivorans, UniProt Q8TPA1); experiment: fluorescence titration with TNP-ATP; format: binding; settings: fluorescent ATP analogue; kinase buffer pH 8, 5 mM MgCl2; 541 nm emission
# T5 construct: gene MA_2013
# T5 sequence (Q8TPA1 1-1000): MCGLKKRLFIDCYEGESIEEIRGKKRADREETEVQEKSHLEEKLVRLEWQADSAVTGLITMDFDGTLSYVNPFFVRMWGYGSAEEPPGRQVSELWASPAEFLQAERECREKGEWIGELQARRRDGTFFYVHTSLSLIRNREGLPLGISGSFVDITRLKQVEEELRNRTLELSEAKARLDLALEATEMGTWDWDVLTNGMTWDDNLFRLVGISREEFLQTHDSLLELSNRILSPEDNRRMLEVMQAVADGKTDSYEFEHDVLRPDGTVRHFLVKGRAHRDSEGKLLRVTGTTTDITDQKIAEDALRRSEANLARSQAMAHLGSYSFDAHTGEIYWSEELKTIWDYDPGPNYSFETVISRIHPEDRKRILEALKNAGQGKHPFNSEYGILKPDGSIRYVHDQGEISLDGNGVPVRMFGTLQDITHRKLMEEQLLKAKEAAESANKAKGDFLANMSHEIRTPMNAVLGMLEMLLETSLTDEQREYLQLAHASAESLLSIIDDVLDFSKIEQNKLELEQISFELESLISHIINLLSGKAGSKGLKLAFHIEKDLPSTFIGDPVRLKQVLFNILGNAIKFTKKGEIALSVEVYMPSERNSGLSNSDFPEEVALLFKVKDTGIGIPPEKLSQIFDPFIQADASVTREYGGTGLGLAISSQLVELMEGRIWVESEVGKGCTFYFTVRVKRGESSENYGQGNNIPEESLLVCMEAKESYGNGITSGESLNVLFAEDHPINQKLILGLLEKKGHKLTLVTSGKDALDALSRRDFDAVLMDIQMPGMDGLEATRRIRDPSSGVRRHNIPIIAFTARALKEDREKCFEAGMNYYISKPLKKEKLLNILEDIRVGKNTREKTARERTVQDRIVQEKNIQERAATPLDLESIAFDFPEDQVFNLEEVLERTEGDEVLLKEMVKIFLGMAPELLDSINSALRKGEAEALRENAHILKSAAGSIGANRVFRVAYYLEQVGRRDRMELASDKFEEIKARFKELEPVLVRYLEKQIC
# [6] = target: T6, PK (Methanosarcina acetivorans, UniProt Q8THY1); experiment: autophosphorylation, SDS-PAGE autoradiography; format: biochemical; settings: labelled compound ([γ-32P]ATP 3.3 μM) with 200 μM ATP; 10 μM kinase; kinase buffer pH 8, 5 mM MgCl2
# T6 construct: gene MA_4377; PAS and HK domains only (no CHASE4, HAMP, R1, R2)
# T6 sequence (Q8THY1 351-765 limits assumed): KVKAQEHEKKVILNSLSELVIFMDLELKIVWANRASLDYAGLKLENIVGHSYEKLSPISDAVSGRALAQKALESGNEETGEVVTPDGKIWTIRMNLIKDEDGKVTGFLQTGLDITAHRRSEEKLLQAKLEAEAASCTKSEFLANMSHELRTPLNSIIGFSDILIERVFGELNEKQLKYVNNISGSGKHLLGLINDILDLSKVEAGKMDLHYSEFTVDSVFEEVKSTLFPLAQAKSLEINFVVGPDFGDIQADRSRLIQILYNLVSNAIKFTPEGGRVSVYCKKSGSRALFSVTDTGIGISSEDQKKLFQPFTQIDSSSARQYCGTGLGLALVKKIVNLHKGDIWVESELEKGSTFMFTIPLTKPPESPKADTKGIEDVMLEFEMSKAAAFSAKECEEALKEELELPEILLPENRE
Molecule,Kd [1],Kd [2],Kd [3],Kd [4],Kd [5],"autophosphorylation, SDS-PAGE autoradiography [6]"
"2′‐(3′)‐O‐(2,4,6‐trinitrophenyl)‐adenosin 5′‐triphosphat [TNP-ATP]",~11 µM,17 ± 5.7 µM,~11 µM,29.6 ± 4.4 µM,28.2 ± 1.3 µM,–
Nc1ncnc2c1ncn2[C@@H]1O[C@H](COP(=O)(O)OP(=O)(O)OP(=O)(O)O)[C@@H](O)[C@H]1O [ATP],–,–,–,–,–,indeed displayed time‐dependent autokinase activity
